What was measured:
[1] = Radioactive metabolite profiling in pooled plasma, urine and feces; format: in vivo, human; conditions: for Plasma (0–144 h) % of AUC (share of total plasma radioactivity exposure) / Plasma (0–144 h) Metabolite/parent drug (%): pooled plasma 0–144 h; for Plasma (0–144 h) Metabolite/parent drug (%): relative to the parent drug; for Feces+urine % of dose: sum of feces 0–192 h and urine 0–96 h; for Feces (0–192 h) % of dose: pooled feces 0–192 h
Procedure: Moreover, four plasma samples at 1 h, 4 h, 48 h, and 96 h were obtained by mixing them in equal volumes. Urine samples were pooled across individuals at an equal volume to obtain one pooled sample within each time period of 0–24 h, 24–48 h, and 48–96 h. Fecal samples (0–192 h) were pooled at the same weight percentages across collection intervals for each subject. Moreover, fecal samples were pooled across individuals at an equal weight to obtain one pooled sample within each time period of 0–72 h, 72–120 h, and 120–192 h. Plasma, urine, and fecal homogenates were extracted and concentrated using organic solvents, and then the redissolved solutions were used for metabolite profile analysis. The plasma, urine, and fecal extracts were separated on HPLC columns, and the HPLC flow fractions were collected in Deepwell LumaPlateTM-96 plates at 15 s/fraction using an automatic fraction collector. The radioactivity of each fraction was quantified using a microplate detector with ARC® Convert and Evaluation software (3.0.2.379) and transformed to obtain the radioactive metabolite spectra. The radioactive metabolite spectra of each sample were integrated to acquire the peak area of each radioactive metabolite peak, the proportion of each spectral peak to the total radioactive intensity of the sample, and the proportion of the radioactivity of the major metabolites to the TRA in the corresponding blood, urine, and fecal samples. Therefore, the ratio of metabolites' concentrations to the total drug exposure (AUC) in the plasma and the ratio of each metabolite's level to the dose administered in the urine and feces were calculated. Liquid chromatography with low-energy radionuclide detection and mass spectrometry was used to identify the main metabolites in human plasma, urine, and fecal samples and to identify the possible biotransformation pathways of IBI351 in these samples.

[2] = ref [11],[19]; cited from earlier work

| Compound | Plasma (0–144 h) % of AUC (share of total plasma radioactivity exposure) [1] | Plasma (0–144 h) Metabolite/parent drug (%) [1] [%] | Feces+urine % of dose [1] | Feces (0–192 h) % of dose [1] | Urine (0–96 h) % of dose ([1]; pooled urine 0–96 h) | average time to reach Cmax [2] [h] | plasma protein binding rate [2] [%] | terminal elimination half-life [2] [h] | volume of distribution [2] [L] | grade of associated adverse events [2] |
| --- | --- | --- | --- | --- | --- | --- | --- | --- | --- | --- |
| CCC(=O)N1CCN2c3c(c(=O)n(-c4c(C)ccnc4C(C)C)c4nc(-c5c(O)cccc5F)c(Cl)cc34)N(C)C(=O)C2C1 (centres unmarked) [M618] | 0.09 % of AUC | 1.98 | 0.35 % of dose | – | – | – | – | – | – | – |
| Cc1ccnc(C(C)C)c1-n1c(=O)c2c(c3cc(Cl)c(-c4c(O)cccc4F)nc31)N1CCN(C(=O)C(O)CO)CC1C(=O)N2C (centres unmarked) [M650] | – | 5.95 | 2.70 % of dose | 2.47 % of dose | – | – | – | – | – | – |
| Cc1ccnc(C(C)C)c1-n1c(=O)c2c(c3cc(Cl)c(-c4c(O)cccc4F)nc31)N1CCN(C(=O)CCSCC(N)C(=O)O)CC1C(=O)N2C (centres unmarked) [M737] | 6.17 % of AUC | 135.90 | 45.36 % of dose | 39.87 % of dose | 5.49 % of dose | – | – | – | – | – |
| CC(=O)NC(CSCCC(=O)N1CCN2c3c(c(=O)n(-c4c(C)ccnc4C(C)C)c4nc(-c5c(O)cccc5F)c(Cl)cc34)N(C)C(=O)C2C1)C(=O)O (centres unmarked) [M779] | 0.05 % of AUC | 1.10 | 2.70 % of dose | 2.59 % of dose | – | – | – | – | – | – |
| C=C(F)C(=O)N1CCN(c2nc(OC[C@@H]3CCCN3C)nc3c2CCN(c2cccc4cccc(Cl)c24)C3)C[C@@H]1CC#N [adagrasib] | – | – | – | – | – | 6 | 98 | 23 | 942 | – |
| C=CC(=O)N1CCN(c2nc(=O)n(-c3c(C)ccnc3C(C)C)c3nc(-c4c(O)cccc4F)c(F)cc23)[C@@H](C)C1 [sotorasib] | – | – | – | – | – | 1 | – | 5 | 211 | ≥ 3 |

Source: paper PMC12329412, “Study of the mass balance, biotransformation, and safety of [^14C]IBI351 in healthy Chinese subjects” (Journal of Biomedical Research, 2024)
